The target in test [1] is T1, human recombinant adrenergic α2B receptor (Homo sapiens, UniProt P18089).
T1 construct: expressed in transfected cells; host or cells: CHO-K1
T1 sequence (P18089 1-450): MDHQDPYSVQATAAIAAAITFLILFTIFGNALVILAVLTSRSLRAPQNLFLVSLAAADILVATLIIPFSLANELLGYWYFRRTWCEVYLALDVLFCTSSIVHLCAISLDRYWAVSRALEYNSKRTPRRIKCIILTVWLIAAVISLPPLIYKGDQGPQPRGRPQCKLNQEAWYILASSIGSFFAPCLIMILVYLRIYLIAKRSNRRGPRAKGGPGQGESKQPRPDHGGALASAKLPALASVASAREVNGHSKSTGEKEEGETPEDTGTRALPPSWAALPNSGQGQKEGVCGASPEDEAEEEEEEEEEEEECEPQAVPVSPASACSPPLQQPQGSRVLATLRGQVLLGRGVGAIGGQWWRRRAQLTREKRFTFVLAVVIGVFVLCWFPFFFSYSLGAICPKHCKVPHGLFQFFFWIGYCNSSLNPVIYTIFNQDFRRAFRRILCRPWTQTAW
Put plainly: Radioligand binding, adrenergic α2B receptor ([3H]Rauwolscine). The settings on record: 0.1 μM compound, CHO-K1 cells, read-out: Percentage inhibition of ligand binding, Adrenergic α2B. The procedure, abridged:
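Percent inhibition of specific [3H]Rauwolscine (2.5 nM) binding, compounds at ≤1 μM, 1% DMSO vehicle, 10 μM prazosin defining nonspecific. Receptor: human α2B expressed in CHO-K1 cells, 60 min incubation at 25 °C in Tris-HCl pH 7.4 buffer (MgCl2, EDTA, BSA); filtered, washed, counted.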

In test [2] the target is T2, rat adrenergic α1B receptor (Rattus norvegicus, UniProt P15823).
T2 construct: rat adrenergic α1B receptor obtained from Wistar Rat liver; from tissue; host or cells: Wistar rat liver
T2 sequence (P15823 1-515): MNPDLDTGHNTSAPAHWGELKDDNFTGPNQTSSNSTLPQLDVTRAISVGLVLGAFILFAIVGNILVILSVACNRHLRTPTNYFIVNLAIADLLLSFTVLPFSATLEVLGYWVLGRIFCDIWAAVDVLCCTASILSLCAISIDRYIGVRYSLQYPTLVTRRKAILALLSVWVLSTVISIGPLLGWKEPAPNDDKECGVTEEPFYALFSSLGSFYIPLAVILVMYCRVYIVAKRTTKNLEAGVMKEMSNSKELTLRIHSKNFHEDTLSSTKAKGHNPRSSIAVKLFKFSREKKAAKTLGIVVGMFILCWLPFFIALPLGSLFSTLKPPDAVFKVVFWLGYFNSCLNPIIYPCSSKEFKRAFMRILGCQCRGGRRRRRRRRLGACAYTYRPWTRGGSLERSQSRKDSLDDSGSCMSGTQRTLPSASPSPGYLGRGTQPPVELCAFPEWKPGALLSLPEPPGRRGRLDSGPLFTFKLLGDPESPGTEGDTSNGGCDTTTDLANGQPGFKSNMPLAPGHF
Put plainly: Radioligand binding, adrenergic α1B receptor ([3H]Prazosin). The settings on record: 0.1 μM compound, Wistar rat liver, read-out: Percentage inhibition of ligand binding, Adrenergic α1B. In short, it runs like this: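 Wistar rat liver α1B receptor preparation incubated with 0.25 nM [3H]prazosin and compound for 60 min at 25° C in 50 mM Tris-HCl pH 7.4, 0.5 mM EDTA; nonspecific binding defined with 10 μM phentolamine.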

The target of test [3] is T3, human recombinant adrenergic α2A receptor (Homo sapiens, UniProt P08913).
T3 construct: expressed in transfected cells; host or cells: insect Sf9 cells
T3 sequence (P08913 1-465): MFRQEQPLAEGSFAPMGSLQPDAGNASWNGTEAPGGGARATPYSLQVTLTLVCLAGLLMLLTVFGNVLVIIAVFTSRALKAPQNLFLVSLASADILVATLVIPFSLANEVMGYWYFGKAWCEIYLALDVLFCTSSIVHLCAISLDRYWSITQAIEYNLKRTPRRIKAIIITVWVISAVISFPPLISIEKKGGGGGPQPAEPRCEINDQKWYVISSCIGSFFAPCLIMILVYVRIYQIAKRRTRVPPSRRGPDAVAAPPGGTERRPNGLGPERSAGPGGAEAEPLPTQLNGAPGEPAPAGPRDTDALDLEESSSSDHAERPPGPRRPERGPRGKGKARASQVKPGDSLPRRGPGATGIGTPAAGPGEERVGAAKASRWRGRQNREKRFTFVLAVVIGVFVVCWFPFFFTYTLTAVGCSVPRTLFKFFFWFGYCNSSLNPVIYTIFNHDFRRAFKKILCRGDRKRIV
Put plainly: Radioligand binding, adrenergic α2A receptor ([3H]MK-912). To be noted: 0.1 μM compound; Sf9 cells; 1 nM [3H]MK-912; read-out: Percentage inhibition of ligand binding, Adrenergic α2A. The procedure, abridged: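 Percent inhibition of specific [3H]MK-912 (1 nM) binding measured by filtration counting, compounds tested at ≤1 μM in 1% DMSO. Receptor: human α2A from Sf9 cells; incubation 60 min, 25 °C, pH 7.4; 10 μM WB-4101 defined nonspecific binding.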

The target of test [4] is T4, human recombinant adrenergic α1D receptor (Homo sapiens, UniProt P25100).
T4 construct: expressed in transfected cells; host or cells: HEK-293
T4 sequence (P25100 1-572): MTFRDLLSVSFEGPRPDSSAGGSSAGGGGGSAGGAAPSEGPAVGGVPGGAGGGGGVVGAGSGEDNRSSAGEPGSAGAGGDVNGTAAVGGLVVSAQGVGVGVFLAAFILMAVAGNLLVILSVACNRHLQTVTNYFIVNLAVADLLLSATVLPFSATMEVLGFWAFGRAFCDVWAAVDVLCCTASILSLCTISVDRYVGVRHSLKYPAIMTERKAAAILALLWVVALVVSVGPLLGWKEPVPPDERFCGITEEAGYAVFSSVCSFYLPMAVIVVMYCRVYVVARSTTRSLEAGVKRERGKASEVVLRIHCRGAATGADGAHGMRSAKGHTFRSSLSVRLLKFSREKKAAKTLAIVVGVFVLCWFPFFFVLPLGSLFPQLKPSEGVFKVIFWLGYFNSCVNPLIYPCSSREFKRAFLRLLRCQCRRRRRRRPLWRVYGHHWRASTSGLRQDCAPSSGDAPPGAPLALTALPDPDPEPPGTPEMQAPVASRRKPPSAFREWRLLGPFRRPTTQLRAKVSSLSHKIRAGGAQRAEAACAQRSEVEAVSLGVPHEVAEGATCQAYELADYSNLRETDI
Put plainly: Radioligand binding, adrenergic α1D receptor ([3H]Prazosin). To be noted: 0.1 μM compound; HEK-293 cells; 0.6 nM [3H]Prazosin; read-out: Percentage inhibition of ligand binding, Adrenergic α1D. The method, then:
Compounds were incubated with 0.6 nM [3H]Prazosin for 60 min at 25° C. Non-specific binding was estimated in the presence of 10 μM phentolamine. Receptor proteins were filtered and washed, the filters were then counted to determine [3H]Prazosin specifically bound. Compounds were screened at 1 μM or lower, using 1% DMSO as vehicle. Biochemical assay results are presented as the percent inhibition of specific binding in Table 2.

For the compound `Cc1ccc2c(c1)c1c(n2-c2ccc(-c3ccc(F)nc3)cn2)CCN(C)C1` [Compound No. 142, 5-(6′-fluoro-3,3′-bipyridin-6-yl)-2,8-dimethyl-2,3,4,5-tetrahydro-1H-pyrido[4,3-b]indole], the inhibition (usually the drop in the measured response relative to a control, in per cent) at 0.1 µM in test [1] worked out at 91%; in test [2], 83%; in test [3], 59%; in test [4] it was 78%.
The like results for `Cc1ccc2c(c1)c1c(n2-c2ccc(-c3cnc(N(C)C)nc3)cn2)CCN(C)C1` [Compound No. 138, 5-(6-(2,8-dimethyl-3,4-dihydro-1H-pyrido[4,3-b]indol-5(2H)-yl)pyridin-3-yl)-N,N-dimethylpyrimidin-2-amine] were, in that order, 82%, 73%, 40% and 73%.
On to `Cc1ccc2c(c1)c1c(n2-c2ccc(-c3ccc(C)nc3)cn2)CCN(C)C1` [Compound No. 156, 2,8-dimethyl-5-(6′-methyl-3,3′-bipyridin-6-yl)-2,3,4,5-tetrahydro-1H-pyrido[4,3-b]indole], for which the inhibition at 0.1 µM was 78% in test [1], 78% in test [2], 40% in test [3] and 69% in test [4].
As for `Cc1cc(C)c2c(c1)c1c(n2-c2cscc2-c2ccncc2)CCN(C)C1` [Compound No. 149], the inhibition at 0.1 µM in test [1] was 14%; in test [2], 16%; in test [3], -6%; in test [4] it was 8%.
In the case of `Cc1ccc2c(c1)c1c(n2-c2ccc(-c3c(C)noc3C)cn2)CCN(C)C1` [Compound No. 137, 4-(6-(2,8-dimethyl-3,4-dihydro-1H-pyrido[4,3-b]indol-5(2H)-yl)pyridin-3-yl)-3,5-dimethylisoxazole], the inhibition at 0.1 µM was 92% in test [1], 72% in test [2], 57% in test [3] and 74% in test [4].

These data come from US20140155384A1, “COMPOUNDS AND METHODS OF TREATING DIABETES” (Medivation Technologies, Inc., priority 2011, published 2014).
